# From patent US20220168307A1, “TREATMENT OF SMA” (Hoffmann-La Roche Inc., priority 2019, published 2022)
# Where “and” joins values, the source holds several entries; their conditions need not be identical. Equal values may be shown once. Entries after “also recorded” stand apart in the source; their conditions may differ. Read-outs that look alike come from different tables or passages of the source.
# Tests used:
# [1] = biological target: T1, CYP3A4 (Homo sapiens, UniProt P08684); assay: Direct inhibition of CYP3A4 (midazolam and testosterone) in human liver microsomes; format: in vitro ADME; parameters: rows headed: % Control activity at; substrate Midazolam; concentration not given; duplicates; % Control activity at; substrate Testosterone; % Remaining; other: direct; CYP3A4-Midazolam Activity; risdiplam 0.20 μM; risdiplam 0.10 μM; dupl; details: for % Remaining / maximal inhibition: direct; for maximal inhibition: risdiplam tested up to 12.5 μM; for activity: pH 7.4, direct inhibition, read-out: % Control activity at
# [2] = biological target: T1, CYP3A4; assay: in vitro; details: for % Remaining: duplicates; for IC50: human, microsomes, 30 min pre-incubation
# Experimental: Donors CMV negative for serology are unm
# All incubations were conducted in duplicate.
# % remaining=(C+I/C^−I)*100
# [3] = biological target: T2, CYP2C8 (Homo sapiens, UniProt P10632); assay: biochemical
# T2 sequence (P10632 1-490): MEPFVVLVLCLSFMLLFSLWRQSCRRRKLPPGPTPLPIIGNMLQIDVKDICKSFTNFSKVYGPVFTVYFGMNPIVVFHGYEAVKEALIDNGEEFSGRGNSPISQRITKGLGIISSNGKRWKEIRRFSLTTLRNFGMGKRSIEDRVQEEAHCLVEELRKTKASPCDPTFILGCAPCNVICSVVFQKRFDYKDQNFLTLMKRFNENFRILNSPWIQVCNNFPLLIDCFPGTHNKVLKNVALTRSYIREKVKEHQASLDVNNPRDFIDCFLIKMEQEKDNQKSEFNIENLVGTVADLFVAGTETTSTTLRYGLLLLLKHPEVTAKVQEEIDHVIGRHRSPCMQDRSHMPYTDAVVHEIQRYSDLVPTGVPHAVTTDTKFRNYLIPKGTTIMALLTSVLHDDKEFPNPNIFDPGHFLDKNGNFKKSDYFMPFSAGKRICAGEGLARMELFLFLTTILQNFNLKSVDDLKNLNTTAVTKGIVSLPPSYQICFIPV
# [4] = biological target: T2, CYP2C8; assay: in vitro; details: pooled human liver microsomes, pH 7.4, probe amodiaquine
# [5] = biological target: T3, CYP1A2 (Homo sapiens, UniProt P05177); assay: Direct inhibition of CYP1A2 (phenacetin) in human liver microsomes
# T3 sequence (P05177 1-516): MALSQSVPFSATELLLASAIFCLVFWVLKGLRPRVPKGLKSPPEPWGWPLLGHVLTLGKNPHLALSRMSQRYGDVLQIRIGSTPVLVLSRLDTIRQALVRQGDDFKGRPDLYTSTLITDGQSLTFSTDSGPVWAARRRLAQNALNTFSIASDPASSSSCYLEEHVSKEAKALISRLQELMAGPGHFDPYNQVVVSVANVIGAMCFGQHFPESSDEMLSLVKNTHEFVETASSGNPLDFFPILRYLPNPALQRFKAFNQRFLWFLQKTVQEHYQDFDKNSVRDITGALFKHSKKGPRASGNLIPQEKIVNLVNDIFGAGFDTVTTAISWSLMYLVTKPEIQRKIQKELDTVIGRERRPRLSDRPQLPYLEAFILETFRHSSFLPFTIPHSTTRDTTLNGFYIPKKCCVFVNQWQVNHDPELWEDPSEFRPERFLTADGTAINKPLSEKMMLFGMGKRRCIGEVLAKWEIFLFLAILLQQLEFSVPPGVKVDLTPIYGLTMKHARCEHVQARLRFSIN
# [6] = biological target: T4, CYP2B6 (Homo sapiens, UniProt P20813); assay: Direct inhibition of CYP2B6 (bupropion) in human liver microsomes
# T4 sequence (P20813 1-491): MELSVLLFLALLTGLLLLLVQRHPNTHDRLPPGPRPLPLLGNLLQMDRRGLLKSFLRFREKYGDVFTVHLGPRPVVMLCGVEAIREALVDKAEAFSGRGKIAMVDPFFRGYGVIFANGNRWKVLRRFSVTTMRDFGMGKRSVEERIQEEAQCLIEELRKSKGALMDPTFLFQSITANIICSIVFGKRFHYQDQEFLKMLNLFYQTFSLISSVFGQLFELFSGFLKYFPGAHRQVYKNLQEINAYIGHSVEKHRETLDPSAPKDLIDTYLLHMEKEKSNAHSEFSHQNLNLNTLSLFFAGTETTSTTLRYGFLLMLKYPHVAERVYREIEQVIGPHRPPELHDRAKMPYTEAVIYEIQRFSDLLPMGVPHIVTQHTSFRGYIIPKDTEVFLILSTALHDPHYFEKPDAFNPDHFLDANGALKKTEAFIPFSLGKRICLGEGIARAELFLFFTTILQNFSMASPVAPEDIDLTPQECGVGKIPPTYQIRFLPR
# T1 sequence (P08684 2-503): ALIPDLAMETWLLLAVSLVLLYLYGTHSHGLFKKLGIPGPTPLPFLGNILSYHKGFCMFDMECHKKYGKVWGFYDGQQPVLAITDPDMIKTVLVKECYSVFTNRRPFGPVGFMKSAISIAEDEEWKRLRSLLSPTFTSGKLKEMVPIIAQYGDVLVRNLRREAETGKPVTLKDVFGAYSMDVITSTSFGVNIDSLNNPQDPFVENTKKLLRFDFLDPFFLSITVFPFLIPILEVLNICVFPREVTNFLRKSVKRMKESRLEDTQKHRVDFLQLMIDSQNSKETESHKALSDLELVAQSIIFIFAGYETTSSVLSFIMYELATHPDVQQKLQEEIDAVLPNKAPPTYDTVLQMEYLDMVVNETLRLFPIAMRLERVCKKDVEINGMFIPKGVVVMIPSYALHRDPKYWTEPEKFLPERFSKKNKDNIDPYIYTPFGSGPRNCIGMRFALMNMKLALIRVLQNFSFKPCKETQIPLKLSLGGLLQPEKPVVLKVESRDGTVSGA
smiles,measurement,setting,value
"Cc1cn2nc(-c3cc(=O)n4cc(N5CCNC6(CC6)C5)ccc4n3)cc(C)c2n1 [risdiplam, 7-(4,7-diazaspiro[2.5]octan-7-yl)-2-(2,8-dimethylimidazo[1,2-b]pyridazin-6-yl)pyrido[1,2-a]pyrimidin-4-one]",% Control activity at,"[1]; direct inhibition, substrate Testosterone, concentration not given, duplicates",46%
same,% Remaining,"[1]; CYP3A4-Midazolam Activity, risdiplam 0.10 μM, duplicates",100% and 96%
same,% Remaining,"[1]; CYP3A4-Midazolam Activity, risdiplam 0.20 μM, duplicates",99% and 102%
same,% Remaining,"[1]; CYP3A4-Midazolam Activity, risdiplam 0.50 μM, duplicates",101% and 100%
same,% Remaining,"[1]; CYP3A4-Midazolam Activity, risdiplam 1.3 μM, duplicates",108% and 91%
same,% Remaining,"[1]; CYP3A4-Midazolam Activity, risdiplam 3.2 μM, duplicates",94% and 97%
same,% Remaining,"[1]; CYP3A4-Midazolam Activity, risdiplam 8.0 μM, duplicates",84% and 83%
same,% Remaining,"[1]; CYP3A4-Midazolam Activity, risdiplam 12.5 μM, duplicates",72%
same,% Remaining,"[1]; CYP3A4-Testosterone Activity, risdiplam 0.10 μM, duplicates",98%
same,% Remaining,"[1]; CYP3A4-Testosterone Activity, risdiplam 0.20 μM, duplicates",98% and 96%
same,% Remaining,"[1]; CYP3A4-Testosterone Activity, risdiplam 0.50 μM, duplicates",96% and 95%
same,% Remaining,"[1]; CYP3A4-Testosterone Activity, risdiplam 1.3 μM, duplicates",93% and 92%
same,% Remaining,"[1]; CYP3A4-Testosterone Activity, risdiplam 3.2 μM, duplicates",78% and 79%
same,% Remaining,"[1]; CYP3A4-Testosterone Activity, risdiplam 8.0 μM, duplicates",58%
same,% Remaining,"[1]; CYP3A4-Testosterone Activity, risdiplam 12.5 μM, duplicates",44% and 46%
same,maximal inhibition,[1]; midazolam as substrate,28%
same,maximal inhibition,[1]; testosterone as substrate,55%
same,IC50,"[1]; human, microsomes, pH 7.4, IC50, direct, CYP3A4-Testosterone Activity (6β-hydroxylation), testosterone 50 μM",11 µM
same,activity,"[1]; human, microsomes, substrate Midazolam, concentration not given, duplicates",72%
same,activity,"[1]; human, microsomes, substrate Testosterone, concentration not given, duplicates",44%
same,direct inhibition of CYP3A4/5 (in words),"[1]; midazolam 1′-hydroxylase and testosterone 6β-hydroxylase, up to 12.5 μM",low potential to cause direct inhibition; also recorded: some inhibition
same,% Remaining,"[2]; CYP3A4-Midazolam, minus NADPH, risdiplam pre-incubation 0.10 μM",88% and 103%
same,% Remaining,"[2]; CYP3A4-Midazolam, minus NADPH, risdiplam pre-incubation 0.20 μM",99% and 103%
same,% Remaining,"[2]; CYP3A4-Midazolam, minus NADPH, risdiplam pre-incubation 0.50 μM",99% and 108%
same,% Remaining,"[2]; CYP3A4-Midazolam, minus NADPH, risdiplam pre-incubation 1.3 μM",99% and 110%
same,% Remaining,"[2]; CYP3A4-Midazolam, minus NADPH, risdiplam pre-incubation 3.2 μM",99% and 100%
same,% Remaining,"[2]; CYP3A4-Midazolam, minus NADPH, risdiplam pre-incubation 8.0 μM",95% and 106%
same,% Remaining,"[2]; CYP3A4-Midazolam, minus NADPH, risdiplam pre-incubation 12.5 μM",115% and 108%
same,% Remaining,"[2]; CYP3A4-Midazolam, plus NADPH, risdiplam pre-incubation 0.10 μM",101% and 105%
same,% Remaining,"[2]; CYP3A4-Midazolam, plus NADPH, risdiplam pre-incubation 0.20 μM",101% and 109%
same,% Remaining,"[2]; CYP3A4-Midazolam, plus NADPH, risdiplam pre-incubation 0.50 μM",94% and 109%
same,% Remaining,"[2]; CYP3A4-Midazolam, plus NADPH, risdiplam pre-incubation 1.3 μM",90% and 96%
same,% Remaining,"[2]; CYP3A4-Midazolam, plus NADPH, risdiplam pre-incubation 3.2 μM",60% and 64%
same,% Remaining,"[2]; CYP3A4-Midazolam, plus NADPH, risdiplam pre-incubation 8.0 μM",28% and 30%
same,% Remaining,"[2]; CYP3A4-Midazolam, plus NADPH, risdiplam pre-incubation 12.5 μM",22% and 21%
same,% Remaining,"[2]; CYP3A4-Testosterone, minus NADPH, risdiplam pre-incubation 0.10 μM",101% and 99%
same,% Remaining,"[2]; CYP3A4-Testosterone, minus NADPH, risdiplam pre-incubation 0.20 μM",94% and 93%
same,% Remaining,"[2]; CYP3A4-Testosterone, minus NADPH, risdiplam pre-incubation 0.50 μM",100% and 93%
same,% Remaining,"[2]; CYP3A4-Testosterone, minus NADPH, risdiplam pre-incubation 1.3 μM",102% and 95%
same,% Remaining,"[2]; CYP3A4-Testosterone, minus NADPH, risdiplam pre-incubation 3.2 μM",93% and 102%
same,% Remaining,"[2]; CYP3A4-Testosterone, minus NADPH, risdiplam pre-incubation 8.0 μM",90% and 88%
same,% Remaining,"[2]; CYP3A4-Testosterone, minus NADPH, risdiplam pre-incubation 12.5 μM",89%
same,% Remaining,"[2]; CYP3A4-Testosterone, plus NADPH, risdiplam pre-incubation 0.10 μM",97% and 95%
same,% Remaining,"[2]; CYP3A4-Testosterone, plus NADPH, risdiplam pre-incubation 0.20 μM",98% and 93%
same,% Remaining,"[2]; CYP3A4-Testosterone, plus NADPH, risdiplam pre-incubation 0.50 μM",94% and 92%
same,% Remaining,"[2]; CYP3A4-Testosterone, plus NADPH, risdiplam pre-incubation 1.3 μM",90% and 85%
same,% Remaining,"[2]; CYP3A4-Testosterone, plus NADPH, risdiplam pre-incubation 3.2 μM",63% and 62%
same,% Remaining,"[2]; CYP3A4-Testosterone, plus NADPH, risdiplam pre-incubation 8.0 μM",23% and 24%
same,% Remaining,"[2]; CYP3A4-Testosterone, plus NADPH, risdiplam pre-incubation 12.5 μM",13%
same,IC50,"[2]; pH 7.4, IC50, CYP3A4-Midazolam Inactivation, minus NADPH",> 12.5 µM
same,IC50,"[2]; pH 7.4, IC50, CYP3A4-Midazolam Inactivation, plus NADPH",4.8 µM
same,IC50,"[2]; pH 7.4, IC50, CYP3A4-Testosterone Inactivation, minus NADPH",> 12.5 µM
same,IC50,"[2]; pH 7.4, IC50, CYP3A4-Testosterone Inactivation, plus NADPH",4.1 µM
same,IC50,[3],> 12.5 µM
same,activity,[4],93%
same,% Control activity at,"[5]; direct inhibition, substrate Phenacetin, concentration not given, duplicates",101%
same,reversible (direct) inhibition (in words),[5]; risdiplam up to 12.5 μM,did not show any significant reversible or time-dependent inhibition; also recorded: No significant reversible or time-dependent inhibition; also recorded: No significant reversible inhibition; also recorded: low potential to cause direct or time-dependent inhibition
same,% Control activity at,"[6]; direct inhibition, substrate Bupropion, concentration not given, duplicates",94%
same,reversible (direct) inhibition (in words),[6]; risdiplam up to 12.5 μM,did not show any significant reversible or time-dependent inhibition; also recorded: No significant reversible or time-dependent inhibition; also recorded: No significant reversible inhibition; also recorded: low potential to cause direct or time-dependent inhibition
